The source of these data is ChEMBL document CHEMBL4808251, “Preparation, biological & cheminformatics-based assessment of N2,N4-diphenylpyrimidine-2,4-diamine as potential Kinase-targeted antimalarials” (Bioorg Med Chem, 2021).

Series [1] can be described thus: Cytotoxicity against human HepG2 cells assessed as inhibition of cell viability relative to control. The conditions noted are these: read-out: INH. It is filed as cell-based.
The subject of another series is Plasmodium falciparum. The series is described as follows: Antimalarial activity against chloroquine-sensitive plasmodium falciparum 3D7 infected in human erythrocytes assessed as parasite growth inhibition measured after 72 hrs by SYBR green dye based fluorescence analysis. The conditions noted are these: 3D7, Erythrocyte. Type of series: functional, organism-based.

Series [2] can be described thus: Aqueous solubility of compound in PBS at pH 7.4 by HPLC-UV analysis. Type of series: physicochemical.
A short description of series [3]: Selectivity index, ratio of IC50 for cytotoxicity against human HepG2 cells to IC50 for antimalarial activity against chloroquine-sensitive plasmodium falciparum 3D7 infected in human erythrocytes. It is filed as toxicity, cell-based. The conditions noted are these: read-out: Ratio IC50.
Series [4] has as its target JNK1 (Mitogen-activated protein kinase 8) (Homo sapiens, UniProt P45983). The series is described as follows: Inhibition of human JNK1 at 1 uM measured after 30 mins by [gamma-33P]-ATP assay.
The nature of series [5]: 1-octanol/water partition coefficient, logD of the compound at pH 7.4 measured after 6 hrs by shake flask technique based HPLC-UV analysis. It is filed as physicochemical.
Series [6] can be described thus: Intrinsic clearance in human liver microsomes at 0.5 uM in the presence of NADPH measured upto 30 mins by UPLC-MS/MS analysis. It is filed as ADME, Microsome. The conditions noted are these: 0.5 h. (Liver microsomes are vesicles of endoplasmic reticulum, rich in cytochrome P450 enzymes.)
The target in series [7] is ERK1 (Mitogen-activated protein kinase 3) (Homo sapiens, UniProt P27361). The series is described as follows: Inhibition of human ERK1 at 1 uM measured after 30 mins by [gamma-33P]-ATP assay.
The target in series [8] is CDK2 (Cyclin-dependent kinase 2) (Homo sapiens, UniProt P24941). The series is described as follows: Inhibition of human CDK2 at 1 uM measured after 30 mins by [gamma-33P]-ATP assay.
Series [9] has as its target PIM1 (Serine/threonine-protein kinase pim-1) (Homo sapiens, UniProt P11309). Description: Inhibition of human PIM1 at 1 uM measured after 30 mins by [gamma-33P]-ATP assay.
Series [10] deals with T1, JAK3 (Tyrosine-protein kinase JAK3) (Homo sapiens, UniProt P52333).
T1 sequence (P52333 whole entry): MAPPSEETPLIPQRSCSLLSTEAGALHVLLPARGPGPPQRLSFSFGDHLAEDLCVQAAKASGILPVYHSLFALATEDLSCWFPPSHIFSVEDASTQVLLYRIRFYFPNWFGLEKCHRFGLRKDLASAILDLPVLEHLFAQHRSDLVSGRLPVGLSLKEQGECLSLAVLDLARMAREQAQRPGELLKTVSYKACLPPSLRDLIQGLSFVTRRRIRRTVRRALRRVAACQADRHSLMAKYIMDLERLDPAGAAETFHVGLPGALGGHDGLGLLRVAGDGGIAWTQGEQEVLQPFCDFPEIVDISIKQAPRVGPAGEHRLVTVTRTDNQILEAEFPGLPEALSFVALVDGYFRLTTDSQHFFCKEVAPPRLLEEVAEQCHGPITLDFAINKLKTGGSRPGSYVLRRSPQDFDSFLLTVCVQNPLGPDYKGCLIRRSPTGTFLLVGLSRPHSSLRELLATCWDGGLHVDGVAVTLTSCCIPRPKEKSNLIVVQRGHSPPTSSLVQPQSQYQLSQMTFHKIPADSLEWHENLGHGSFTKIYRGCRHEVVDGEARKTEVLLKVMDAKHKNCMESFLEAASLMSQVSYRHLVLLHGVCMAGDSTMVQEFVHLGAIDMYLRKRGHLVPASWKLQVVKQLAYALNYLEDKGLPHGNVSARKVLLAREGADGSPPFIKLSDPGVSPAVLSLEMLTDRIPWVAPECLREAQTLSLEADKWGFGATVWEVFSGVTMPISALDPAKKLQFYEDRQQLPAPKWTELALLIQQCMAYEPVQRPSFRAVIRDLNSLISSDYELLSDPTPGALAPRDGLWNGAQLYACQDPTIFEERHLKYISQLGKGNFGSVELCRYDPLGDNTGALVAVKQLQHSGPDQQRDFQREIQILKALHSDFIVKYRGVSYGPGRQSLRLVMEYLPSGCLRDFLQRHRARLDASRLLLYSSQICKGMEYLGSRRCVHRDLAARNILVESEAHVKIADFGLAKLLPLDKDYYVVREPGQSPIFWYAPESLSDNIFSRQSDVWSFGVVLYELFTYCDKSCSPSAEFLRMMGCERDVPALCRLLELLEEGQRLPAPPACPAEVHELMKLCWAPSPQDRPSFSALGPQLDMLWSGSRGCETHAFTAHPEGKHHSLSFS
The series is described as follows: Inhibition of human JAK3 at 1 uM measured after 30 mins by [gamma-33P]-ATP assay.

The next series has as its system HepG2. The series is described as follows: Cytotoxicity against human HepG2 cells assessed as inhibition of cell growth measured after 72 hrs by resazurin dye based fluorescence assay. The conditions noted are these: HepG2, 72 h. In general terms: The colour change of resazurin is a common sign of viable cells or microbes.
Series [11] concerns the target MEKK1 (Mitogen-activated protein kinase kinase kinase 1) (Homo sapiens, UniProt Q13233). Description: Inhibition of human MEKK1 at 1 uM measured after 30 mins by [gamma-33P]-ATP assay.
The nature of series [12]: Effective permeability of the compound in PBS at pH 7.4 at 10 uM incubated for 5 hrs by PAMPA based UPLC-MS/MS analysis. It is filed as ADME. The following applies: read-out: permeability. (In general: In PAMPA a lipid-coated filter parts donor from acceptor wells.)
In series [13] the target is HER4 (Receptor tyrosine-protein kinase erbB-4) (Homo sapiens, UniProt Q15303). The series is described as follows: Inhibition of human HER4 at 1 uM measured after 30 mins by [gamma-33P]-ATP assay.
HER4 (Receptor tyrosine-protein kinase erbB-4), sequence (Q15303 whole entry): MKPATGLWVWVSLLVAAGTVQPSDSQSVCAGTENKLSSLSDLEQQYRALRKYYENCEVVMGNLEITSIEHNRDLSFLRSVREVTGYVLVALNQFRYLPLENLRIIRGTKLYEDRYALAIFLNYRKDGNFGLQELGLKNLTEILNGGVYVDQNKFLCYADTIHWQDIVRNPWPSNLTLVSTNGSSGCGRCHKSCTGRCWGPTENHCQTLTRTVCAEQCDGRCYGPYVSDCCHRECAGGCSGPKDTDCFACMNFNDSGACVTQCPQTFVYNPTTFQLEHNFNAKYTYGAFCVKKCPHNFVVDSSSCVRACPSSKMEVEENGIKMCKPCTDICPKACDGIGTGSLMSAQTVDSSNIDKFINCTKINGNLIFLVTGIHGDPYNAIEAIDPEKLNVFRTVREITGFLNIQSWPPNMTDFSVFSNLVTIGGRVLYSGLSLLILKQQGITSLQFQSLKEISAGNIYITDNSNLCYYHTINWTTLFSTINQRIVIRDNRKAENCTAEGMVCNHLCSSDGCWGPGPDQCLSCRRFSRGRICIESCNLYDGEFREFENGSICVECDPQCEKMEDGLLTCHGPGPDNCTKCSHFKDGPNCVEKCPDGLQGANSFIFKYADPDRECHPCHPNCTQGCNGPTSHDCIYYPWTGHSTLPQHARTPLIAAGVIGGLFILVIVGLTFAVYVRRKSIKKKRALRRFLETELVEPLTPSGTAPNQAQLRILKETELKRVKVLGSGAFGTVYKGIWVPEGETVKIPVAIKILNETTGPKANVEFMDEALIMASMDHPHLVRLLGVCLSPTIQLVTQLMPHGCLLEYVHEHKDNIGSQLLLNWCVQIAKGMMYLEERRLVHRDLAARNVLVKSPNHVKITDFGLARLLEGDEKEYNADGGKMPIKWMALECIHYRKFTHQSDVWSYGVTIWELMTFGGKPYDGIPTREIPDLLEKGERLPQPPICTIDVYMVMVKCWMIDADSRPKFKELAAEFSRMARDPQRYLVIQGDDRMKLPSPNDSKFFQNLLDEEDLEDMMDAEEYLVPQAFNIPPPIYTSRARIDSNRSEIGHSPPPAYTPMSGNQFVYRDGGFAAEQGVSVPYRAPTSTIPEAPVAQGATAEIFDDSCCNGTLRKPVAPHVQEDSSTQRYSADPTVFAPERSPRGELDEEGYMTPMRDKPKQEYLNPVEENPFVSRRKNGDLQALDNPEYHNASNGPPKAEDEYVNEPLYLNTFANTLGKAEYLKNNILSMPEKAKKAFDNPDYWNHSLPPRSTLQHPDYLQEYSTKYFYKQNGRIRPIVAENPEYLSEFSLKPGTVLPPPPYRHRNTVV
The next series deals with T2, Aurora kinase A (Homo sapiens, UniProt O14965).
T2 sequence (O14965 whole entry): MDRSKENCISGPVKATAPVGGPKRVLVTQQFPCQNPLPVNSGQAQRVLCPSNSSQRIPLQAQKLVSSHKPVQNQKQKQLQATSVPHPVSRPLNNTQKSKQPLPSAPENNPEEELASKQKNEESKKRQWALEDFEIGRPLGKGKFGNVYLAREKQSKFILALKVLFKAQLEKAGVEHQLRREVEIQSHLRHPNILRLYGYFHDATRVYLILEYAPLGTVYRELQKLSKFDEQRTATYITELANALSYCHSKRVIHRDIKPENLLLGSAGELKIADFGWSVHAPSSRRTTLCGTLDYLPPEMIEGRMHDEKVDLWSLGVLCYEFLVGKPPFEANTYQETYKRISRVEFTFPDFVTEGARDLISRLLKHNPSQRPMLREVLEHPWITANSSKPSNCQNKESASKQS
Description: Inhibition of human Aurora A at 1 uM measured after 30 mins by [gamma-33P]-ATP assay.

Series [14] has as its target VEGFR1 (Vascular endothelial growth factor receptor 1) (Homo sapiens, UniProt P17948). The series is described as follows: Inhibition of human VEGFR1 at 1 uM measured after 30 mins by [gamma-33P]-ATP assay. The following applies: human VEGFR1 kinase.

≈ marks a conversion by molar mass, not a printed value.

VEGFR1 (Vascular endothelial growth factor receptor 1), sequence (P17948 whole entry): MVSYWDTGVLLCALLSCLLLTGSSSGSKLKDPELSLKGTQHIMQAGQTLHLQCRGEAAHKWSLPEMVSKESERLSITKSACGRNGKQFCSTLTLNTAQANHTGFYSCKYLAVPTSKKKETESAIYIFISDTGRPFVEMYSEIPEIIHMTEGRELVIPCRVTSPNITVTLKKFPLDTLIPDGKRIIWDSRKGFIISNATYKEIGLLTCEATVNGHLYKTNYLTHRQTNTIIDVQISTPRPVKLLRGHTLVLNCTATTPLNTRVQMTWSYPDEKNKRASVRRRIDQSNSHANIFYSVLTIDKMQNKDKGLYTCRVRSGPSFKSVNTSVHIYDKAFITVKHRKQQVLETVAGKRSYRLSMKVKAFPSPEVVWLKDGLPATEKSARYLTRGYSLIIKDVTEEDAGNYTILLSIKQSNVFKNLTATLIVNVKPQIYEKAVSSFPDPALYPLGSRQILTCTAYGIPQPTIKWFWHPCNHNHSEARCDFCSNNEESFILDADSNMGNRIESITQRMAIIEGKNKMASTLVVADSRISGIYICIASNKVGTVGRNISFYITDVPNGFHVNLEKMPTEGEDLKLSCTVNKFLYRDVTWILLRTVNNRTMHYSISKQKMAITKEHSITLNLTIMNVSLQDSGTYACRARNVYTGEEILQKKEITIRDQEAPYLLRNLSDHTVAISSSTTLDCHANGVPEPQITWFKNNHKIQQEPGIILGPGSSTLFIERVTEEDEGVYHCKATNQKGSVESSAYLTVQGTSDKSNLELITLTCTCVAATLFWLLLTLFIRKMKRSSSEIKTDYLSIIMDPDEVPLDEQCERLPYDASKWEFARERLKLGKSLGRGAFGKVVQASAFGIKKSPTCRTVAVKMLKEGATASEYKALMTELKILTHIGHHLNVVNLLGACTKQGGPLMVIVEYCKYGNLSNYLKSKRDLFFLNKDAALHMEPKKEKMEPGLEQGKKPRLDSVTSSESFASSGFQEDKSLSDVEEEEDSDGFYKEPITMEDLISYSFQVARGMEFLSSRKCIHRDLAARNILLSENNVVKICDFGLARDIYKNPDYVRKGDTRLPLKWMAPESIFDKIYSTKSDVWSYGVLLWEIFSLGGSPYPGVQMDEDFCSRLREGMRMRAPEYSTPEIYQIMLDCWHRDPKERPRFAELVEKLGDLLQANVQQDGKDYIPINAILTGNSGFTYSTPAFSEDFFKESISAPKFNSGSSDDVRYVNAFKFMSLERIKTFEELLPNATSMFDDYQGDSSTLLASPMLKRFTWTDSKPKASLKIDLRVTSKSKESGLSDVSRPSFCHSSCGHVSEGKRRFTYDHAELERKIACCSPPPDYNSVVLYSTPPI
JNK1 (Mitogen-activated protein kinase 8), sequence (P45983 whole entry): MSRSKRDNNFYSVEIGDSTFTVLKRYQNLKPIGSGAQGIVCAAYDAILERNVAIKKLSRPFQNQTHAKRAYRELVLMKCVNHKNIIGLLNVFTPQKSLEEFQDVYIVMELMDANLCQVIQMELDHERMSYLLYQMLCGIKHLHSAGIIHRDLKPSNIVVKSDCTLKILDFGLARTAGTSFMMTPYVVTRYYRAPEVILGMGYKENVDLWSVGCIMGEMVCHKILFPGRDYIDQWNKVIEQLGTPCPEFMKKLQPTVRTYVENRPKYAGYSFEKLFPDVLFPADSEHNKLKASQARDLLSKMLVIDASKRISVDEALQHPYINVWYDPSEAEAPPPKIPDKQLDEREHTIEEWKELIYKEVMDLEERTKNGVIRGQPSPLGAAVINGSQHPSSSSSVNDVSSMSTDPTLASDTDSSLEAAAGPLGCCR
PIM1 (Serine/threonine-protein kinase pim-1), sequence (P11309 whole entry): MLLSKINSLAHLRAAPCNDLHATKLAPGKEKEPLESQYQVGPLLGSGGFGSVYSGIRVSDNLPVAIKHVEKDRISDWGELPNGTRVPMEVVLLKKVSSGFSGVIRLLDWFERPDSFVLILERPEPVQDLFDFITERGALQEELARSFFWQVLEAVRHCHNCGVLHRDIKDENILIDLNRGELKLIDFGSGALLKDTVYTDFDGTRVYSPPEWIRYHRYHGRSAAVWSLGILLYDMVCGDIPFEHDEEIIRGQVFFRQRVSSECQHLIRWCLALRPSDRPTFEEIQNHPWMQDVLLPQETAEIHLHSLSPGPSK
MEKK1 (Mitogen-activated protein kinase kinase kinase 1), sequence (Q13233 whole entry): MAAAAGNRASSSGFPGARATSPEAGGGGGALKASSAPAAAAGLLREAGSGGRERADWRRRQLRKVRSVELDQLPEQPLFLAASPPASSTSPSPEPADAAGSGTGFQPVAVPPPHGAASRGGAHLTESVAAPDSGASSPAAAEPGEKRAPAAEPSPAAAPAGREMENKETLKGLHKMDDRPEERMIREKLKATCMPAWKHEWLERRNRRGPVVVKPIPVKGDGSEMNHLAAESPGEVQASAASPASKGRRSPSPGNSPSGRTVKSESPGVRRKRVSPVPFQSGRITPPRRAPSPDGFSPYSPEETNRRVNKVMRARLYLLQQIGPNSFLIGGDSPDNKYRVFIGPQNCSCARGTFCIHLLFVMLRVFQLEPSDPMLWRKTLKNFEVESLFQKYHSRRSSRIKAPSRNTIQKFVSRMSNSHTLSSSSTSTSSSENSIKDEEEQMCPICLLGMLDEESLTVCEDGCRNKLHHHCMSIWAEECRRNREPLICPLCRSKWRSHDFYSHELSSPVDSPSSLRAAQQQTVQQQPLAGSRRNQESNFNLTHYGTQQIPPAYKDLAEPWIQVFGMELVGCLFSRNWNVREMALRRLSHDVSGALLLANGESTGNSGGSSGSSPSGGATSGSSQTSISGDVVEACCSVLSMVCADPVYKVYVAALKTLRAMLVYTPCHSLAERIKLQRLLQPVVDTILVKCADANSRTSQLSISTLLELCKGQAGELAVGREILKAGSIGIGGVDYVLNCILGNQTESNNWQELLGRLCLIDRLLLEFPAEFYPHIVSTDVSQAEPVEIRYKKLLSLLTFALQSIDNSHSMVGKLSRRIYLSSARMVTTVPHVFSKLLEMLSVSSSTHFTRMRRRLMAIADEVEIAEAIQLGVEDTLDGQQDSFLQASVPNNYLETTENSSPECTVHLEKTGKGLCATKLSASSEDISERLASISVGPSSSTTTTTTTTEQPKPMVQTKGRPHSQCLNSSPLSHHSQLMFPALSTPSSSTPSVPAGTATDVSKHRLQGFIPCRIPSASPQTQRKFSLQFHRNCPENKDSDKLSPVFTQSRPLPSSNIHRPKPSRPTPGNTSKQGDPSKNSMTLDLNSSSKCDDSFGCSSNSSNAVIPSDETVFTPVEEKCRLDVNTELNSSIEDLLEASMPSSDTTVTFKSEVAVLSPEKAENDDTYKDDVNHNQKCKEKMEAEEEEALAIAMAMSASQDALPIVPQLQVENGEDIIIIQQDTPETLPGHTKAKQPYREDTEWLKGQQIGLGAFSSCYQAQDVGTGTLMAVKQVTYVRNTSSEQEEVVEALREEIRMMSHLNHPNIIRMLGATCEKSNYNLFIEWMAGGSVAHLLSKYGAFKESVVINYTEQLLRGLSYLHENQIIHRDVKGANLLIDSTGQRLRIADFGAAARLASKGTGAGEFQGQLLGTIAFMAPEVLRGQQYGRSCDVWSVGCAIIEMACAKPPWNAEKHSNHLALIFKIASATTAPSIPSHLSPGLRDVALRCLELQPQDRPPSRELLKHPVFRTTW

What is called IC50 is the concentration needed to halve the response being measured. In the case of `CC(=O)c1ccc(NC(=O)Nc2ccc(N(C)c3ccnc(Nc4cccc(CS(C)(=O)=O)c4)n3)cc2)cc1`, the cytotoxicity in [1] came to 86%. In addition, the concentration for half-maximal inhibition (IC50) in the series with Plasmodium falciparum was found to be 120 nM.
By solubility is commonly meant how much of the substance goes into solution per volume. Read a high solubility as much dissolved substance. As usually defined, the inhibition is the drop in the measured response relative to a control, in per cent. Usually logD stands for the decadic logarithm of the distribution of all forms, ionised or not, between an organic phase and buffer at a given pH. Low readings indicate lower lipophilicity, high ones higher lipophilicity. Compound `Cc1cc(Nc2nccc(Nc3ccc4nc[nH]c4c3)n2)ccc1N1CCN(C)CC1` registered a solubility in [2] of 16 µM (≈ 6.63 µg/mL). Also, the selectivity ratio in [3] was found to be 36. The half-inhibitory concentration (IC50) came to 420 nM with Plasmodium falciparum and 15000 nM in the series on HepG2. Further, the inhibition at 0.5 h, 1 µM in series [4] is 63.5%; in series [7], 71%; in series [8], 57.3%; in series [9], 108%; in [10] it was 57.8%; in series [11], 44.4%. Further, the values for the inhibition at 0.5 h, 1 µM (in [13]; against Aurora kinase A; in series [14]) were 35.4%, 15.7% and 2.9%, respectively. Besides, the logD at 6 h in series [5] is 2.9. Besides, in [6], the CLH was found to be 1.8 mL/min/g. In addition, the Papp at 5 h, 10 µM in [12] amounted to 0.02 ×10⁻⁶ cm/s.
As to `Cc1cccc(Nc2ncc([N+](=O)[O-])c(Nc3ccc4nc[nH]c4c3)n2)c1`, the concentration in solution in series [2] (solubility) came to 1 µM (≈ 0.361 µg/mL). In [3], the selectivity ratio came to 28. Besides, the half-maximal inhibitory concentration (IC50) is 780 nM in the series on Plasmodium falciparum and 22000 nM with HepG2. For the same compound, the inhibition at 0.5 h, 1 µM in [4] was determined as 91%; in series [7], 69.8%; in series [8], 25.3%; in [9] it was 76.7%; in series [10] it was 54.9%; in series [11], 43.2%. For the same compound, the inhibition at 0.5 h, 1 µM in [13] worked out at 83.8%; at Aurora kinase A, 15.6%; in series [14] it was 27.9%. Also, the logD at 6 h in series [5] is 3.2. Also, the CLH in series [6] is 19 mL/min/g. Moreover, in series [12], the Papp at 5 h, 10 µM was determined as 3.8 ×10⁻⁶ cm/s.
For the compound `CN1CCN(c2ccc(Nc3ncc(C#N)c(Nc4ccccc4C(N)=O)n3)cc2)CC1`, the cytotoxicity in series [1] was 43%. Moreover, in the series with Plasmodium falciparum, the IC50 came to 40 nM.
